Measured values from US9447035B2, “Integrin antagonist conjugates for targeted delivery to cells expressing VLA-4” (Hoffmann-La Roche Inc., priority 2012, dated 2016).

Test system: AML MV4-11 cells
Test: siRNA uptake in AML MV4-11 cells by imaging flow cytometry
Assay type: cell-based
Procedure: AML MV4-11 cells in growth medium (RPMI 1640 with 10% FBS) were incubated with Duplex-27 (500 nM) for 1 hour at 37° C. For determining VLA-4 independent binding, 140 (10 μM) was included in one condition to block VLA-4 dependent binding. After incubation, the cells were then washed twice with D-PBS and fixed in 1% paraformaldehyde for 10 minutes. The uptake of siRNA was analyzed by imaging flow cytometry using ImageStreamx (Aminis Corporation, Seattle).

In the case of Cc1cccc(Cl)c1C(=O)N[C@@H](Cc1ccc(NC(=O)c2c(Cl)cccc2Cl)cc1)C(=O)O [Example 140], the “Mean Cy3 intensity” value (140 alone at 10 μM, 1 hour at 37° C.) is reported as 663 and the “effect on the histograph shift of the VLA-4-targeted siRNA duplex” value (VLA-4 antagonist 140 present) is reported as “this shift is oblated”.
